Drawing on patent US20260200928A1, “THERAPEUTIC COMPOUNDS” (Sanofi, priority 2022, published 2026), this text covers IC50 for four molecules.

A word on the IC50: it is the midpoint of a concentration-inhibition curve. Low readings indicate greater potency, high ones weaker potency.

The target of this assay is T1, human IL-17A (Homo sapiens, UniProt Q16552).
T1 construct: purchased R&D Systems 7955-IL/CF
T1 sequence (Q16552 24-155): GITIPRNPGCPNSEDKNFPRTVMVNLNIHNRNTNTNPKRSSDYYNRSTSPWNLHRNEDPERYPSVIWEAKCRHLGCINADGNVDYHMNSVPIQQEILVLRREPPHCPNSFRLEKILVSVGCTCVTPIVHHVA
As to the kind of experiment: IL-17A AlphaLISA competition assay (block of IL-17A binding to its receptor IL-17RA). To be noted: mean IC50 (n≥2), block of IL-17A binding to IL-17RA. The procedure, abridged:
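Bead-based AlphaLISA competition in PBS with 0.05% Tween-20 and 0.1% BSA: compound first meets human IL-17A (7.5 nM stock) for 30 min, then IL-17RA/Fc (5 nM stock) for 90 min, all at room temperature, before acceptor/donor bead capture. IC50 fitted 4-parameter, DMSO and 4 μM reference inhibitor as controls; at least duplicate.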
For orientation: In Alpha technology, singlet oxygen from a donor bead excites a nearby acceptor bead.
`CC(C)n1nccc1C(=O)N[C@H](C(=O)Nc1cc(O[C@@H]2C[C@@H](C(F)(F)F)NC2=O)ccn1)[C@H]1CC[C@H](C)CC1` [Example 323, 1-isopropyl-N—((S)-1-((1r,4S)-4-methylcyclohexyl)-2-oxo-2-((4-(((3R,5S)-2-oxo-5-(trifluoromethyl)pyrrolidin-3-yl)oxy)pyridin-2-yl)amino)ethyl)-1H-pyrazole-5-carboxamide] gave a 50% inhibitory concentration (IC50) of 1210 nM.
The same measure for “N-((1S)-1-(4-chlorocyclohexyl)-2-((4-((S)-2-methoxy-1-((S)-2-oxo-4-(trifluoromethyl)imidazolidin-1-yl)ethyl)pyridin-2-yl)amino)-2-oxoethyl)-1-methyl-1H-pyrazole-5-carboxamide [Example 311]”: 96 nM.
Turning to “N-((S)-1-(4,4-difluorocyclohexyl)-2-oxo-2-((4-(2-((S)-2-oxo-4-(trifluoromethyl)imidazolidin-1-yl)propan-2-yl)pyridin-2-yl)amino)ethyl)-1-isopropyl-1H-pyrazole-5-carboxamide [Example 175]”, the IC50 came out at 384 nM.
The same measure for “N-((S)-2-((4-((S)-1-(5,5-difluoro-2-oxotetrahydropyrimidin-1(2H)-yl)-2-methoxyethyl)pyridin-2-yl)amino)-1-(4,4-difluorocyclohexyl)-2-oxoethyl)-4-ethyl-1,2,5-oxadiazole-3-carboxamide [Example 183]”: 42 nM.
